{"source": "patent US10105357B2", "about": "“Indication of antibiotic drugs for preparation of cancer inhibition pharmaceutical composition” (LAUNX BIOMEDICAL CO., LTD., priority 2014, dated 2018)", "key": {"[1]": {"tested_on": "HeLa (Cervix Adenocarcinoma)", "assay": "Cell viability analysis, cervical cancer HeLa", "assay_type": "cell-based, human", "conditions": "Homo sapiens, HeLa, 72 h"}, "[2]": {"tested_on": "A549 (Lung Adenocarcinoma)", "assay": "Cell viability analysis, lung cancer A549", "assay_type": "cell-based, human", "conditions": "Homo sapiens, A549, 72 h"}, "[3]": {"tested_on": "LoVo (Colorectal Adenocarcinoma)", "assay": "Cell viability analysis, colon cancer LoVo", "assay_type": "cell-based, human", "conditions": "Homo sapiens, LoVo, 72 h"}, "[4]": {"tested_on": "HL-60 (Acute Promyelocytic Leukemia)", "assay": "Cell viability analysis, leukemia HL-60", "assay_type": "cell-based, human", "conditions": "Homo sapiens, HL-60, 72 h, read-out: cell viability (survival rate), HL-60, drug 10 μM, 72 hours, WST-1, OD450 nm"}, "[5]": {"tested_on": "MDA-MB-231 (Mammary Gland, Adenocarcinoma)", "assay": "Cell viability analysis, breast cancer MDA-MB-231", "assay_type": "cell-based, human", "conditions": "Homo sapiens, MDA-MB-231, 72 h, read-out: The results of antibiotic drug inhibiting cancer cell lines (cell viability analysis), MDA-MB231"}, "[6]": {"tested_on": "cancer cell lines", "assay": "Cell viability analysis (WST-1) on cancer cell lines", "assay_type": "cell-based, human", "conditions": "drug 10 μM, 72 hours, WST-1; Table 3"}, "[7]": {"tested_on": "HCT116 (p53+) (Colorectal Carcinoma)"}, "[8]": {"tested_on": "AGS (Gastric Adenocarcinoma)", "assay": "Cell viability analysis, gastric cancer AGS", "assay_type": "cell-based, human", "conditions": "Homo sapiens, 72 h"}, "[9]": {"tested_on": "NIH: OVCAR-3", "assay": "Cell viability analysis, ovarian cancer NIH: OVCAR-3", "assay_type": "cell-based, human", "conditions": "Homo sapiens, OVCAR-3, 72 h, read-out: The results of antibiotic drug inhibiting cancer cell lines (cell viability analysis), NIH-OVCAR-3"}, "[10]": {"tested_on": "MCF7 (Mammary Gland, Adenocarcinoma)", "assay": "Cell viability analysis, breast cancer MCF7", "assay_type": "cell-based, human", "conditions": "Homo sapiens, MCF7, 72 h"}, "[11]": {"tested_on": "TSGH-8301 (Urinary Bladder Carcinoma)", "assay": "Cell viability analysis, bladder cancer TSGH-8301", "assay_type": "cell-based, human", "conditions": "Homo sapiens, 72 h"}, "[12]": {"tested_on": "SAS (Tongue squamous cell carcinoma)", "assay": "Cell viability analysis, tongue cancer SAS", "assay_type": "cell-based, human", "conditions": "Homo sapiens, 72 h, read-out: The results of antibiotic drug inhibiting cancer cell lines (cell viability analysis), SAS"}, "[13]": {"tested_on": "BCC (basal cell carcinoma)", "assay": "Cell viability analysis, skin cancer BCC", "assay_type": "cell-based, human", "conditions": "Homo sapiens, 72 h, read-out: The results of antibiotic drug inhibiting cancer cell lines (cell viability analysis), BCC"}, "[14]": {"tested_on": "U-2OS", "assay": "Cell viability analysis, osteosarcoma U-2OS", "assay_type": "cell-based, human", "conditions": "Homo sapiens, U2OS, 72 h, read-out: The results of antibiotic drug inhibiting cancer cell lines (cell viability analysis), U2OS"}, "[15]": {"tested_on": "Hep3B (hepatocellular carcinoma)", "assay": "Cell viability analysis, hepatic cancer Hep3B", "assay_type": "cell-based, human", "conditions": "Homo sapiens, Hep3B, 72 h, read-out: The results of antibiotic drug inhibiting cancer cell lines (cell viability analysis), Hep3B"}, "[16]": {"tested_on": "MKN-45 (Gastric Adenocarcinoma)", "assay": "Cell viability analysis, gastric cancer MKN-45", "assay_type": "cell-based, human", "conditions": "Homo sapiens, MKN-45, 72 h"}, "[17]": {"tested_on": "786-O (Renal adenocarcinoma)", "assay": "Cell viability analysis, renal cancer 786-O", "assay_type": "cell-based, human", "conditions": "Homo sapiens, 786-0, 72 h, read-out: The results of antibiotic drug inhibiting cancer cell lines (cell viability analysis), 786-O"}, "[18]": {"tested_on": "PC3 (p53−) (Prostate Adenocarcinoma)", "assay": "Cell viability analysis, prostate cancer PC3", "assay_type": "cell-based, human", "conditions": "Homo sapiens, 72 h"}, "[19]": {"tested_on": "BxPC-3", "assay": "Cell viability analysis, pancreatic cancer BxPC-3", "assay_type": "cell-based, human", "conditions": "Homo sapiens, BXPC-3, 72 h, read-out: The results of antibiotic drug inhibiting cancer cell lines (cell viability analysis), BxPC-3"}, "[20]": {"tested_on": "TOV-21G", "assay": "Cell viability analysis, ovarian cancer TOV-21G", "assay_type": "cell-based, human", "conditions": "Homo sapiens, TOV21G, 72 h, read-out: The results of antibiotic drug inhibiting cancer cell lines (cell viability analysis), TOV-21G"}, "[21]": {"tested_on": "AsPC-1", "assay": "Cell viability analysis, pancreatic cancer AsPC-1", "assay_type": "cell-based, human", "conditions": "Homo sapiens, ASPC1, 72 h, read-out: The results of antibiotic drug inhibiting cancer cell lines (cell viability analysis), AsPC-1"}, "[22]": {"tested_on": "HI650 (Lung Adenocarcinoma)", "assay": "Cell viability analysis, lung cancer HI650", "assay_type": "cell-based, human", "conditions": "Homo sapiens, NCI-H1650, 72 h"}, "[23]": {"tested_on": "A375 (Amelanotic Melanoma)", "assay": "Cell viability analysis, skin cancer A375", "assay_type": "cell-based, human", "conditions": "Homo sapiens, A-375, 72 h"}, "[24]": {"tested_on": "T24", "assay": "Cell viability analysis, bladder cancer T24", "assay_type": "cell-based, human", "conditions": "Homo sapiens, T-24, 72 h, read-out: The results of antibiotic drug inhibiting cancer cell lines (cell viability analysis), T24"}}, "note": "Read-outs that look alike come from different tables or passages of the source."}
{"smiles": "Clc1ccc(C(Cn2ccnc2)OCc2ccsc2Cl)c(Cl)c1", "note": "(stereo not shown) [Tioconazole]", "values": [{"measurement": "viability at 10 µM", "setting": "[1]; read-out: The results of antibiotic drug inhibiting cancer cell lines (cell viability analysis), HeLa, repeated experiment", "result": 96.9, "unit": "%"}, {"measurement": "viability at 10 µM", "setting": "[1]; read-out: cell viability (survival rate), HeLa, drug 10 μM, 72 hours, WST-1, OD450 nm", "result": 58.5, "unit": "%"}, {"measurement": "viability at 10 µM", "setting": "[2]; read-out: The results of antibiotic drug inhibiting cancer cell lines (cell viability analysis), A549, A549, repeated experiment", "result": 100, "unit": "%"}, {"measurement": "viability at 10 µM", "setting": "[2]; read-out: cell viability (survival rate), A549, drug 10 μM, 72 hours, WST-1, OD450 nm", "result": 47.6, "unit": "%"}, {"measurement": "viability at 10 µM", "setting": "[3]; read-out: The results of antibiotic drug inhibiting cancer cell lines (cell viability analysis), LoVo, repeated experiment", "result": 99.8, "unit": "%"}, {"measurement": "viability at 10 µM", "setting": "[3]; read-out: cell viability (survival rate), LoVo, drug 10 μM, 72 hours, WST-1, OD450 nm", "result": 83.2, "unit": "%"}, {"measurement": "viability at 10 µM", "setting": "[4]", "result": 57.1, "unit": "%"}, {"measurement": "viability at 10 µM", "setting": "[5]", "result": 103, "unit": "%"}, {"measurement": "inhibition effect on different cancer cell lines", "setting": "[6]", "result": "significant inhibition effect"}, {"measurement": "viability", "setting": "[7]", "result": 103, "unit": "%"}, {"measurement": "viability at 10 µM", "setting": "[8]; read-out: The results of antibiotic drug inhibiting cancer cell lines (cell viability analysis), AGS, repeated experiment", "result": 120, "unit": "%"}, {"measurement": "viability at 10 µM", "setting": "[8]; read-out: cell viability (survival rate), AGS, drug 10 μM, 72 hours, WST-1, OD450 nm", "result": 82.7, "unit": "%"}, {"measurement": "viability at 10 µM", "setting": "[9]", "result": 92.5, "unit": "%"}, {"measurement": "viability at 10 µM", "setting": "[10]; read-out: The results of antibiotic drug inhibiting cancer cell lines (cell viability analysis), MCF-7, MCF-7, repeated experiment", "result": 97.8, "unit": "%"}, {"measurement": "viability at 10 µM", "setting": "[10]; read-out: cell viability (survival rate), MCF7, drug 10 μM, 72 hours, WST-1, OD450 nm", "result": 48, "unit": "%"}, {"measurement": "viability at 10 µM", "setting": "[11]; read-out: The results of antibiotic drug inhibiting cancer cell lines (cell viability analysis), TSGH-8301, TSGH-8301, repeated experiment", "result": 105, "unit": "%"}, {"measurement": "viability at 10 µM", "setting": "[11]; read-out: cell viability (survival rate), TSGH, drug 10 μM, 72 hours, WST-1, OD450 nm", "result": 68.1, "unit": "%"}, {"measurement": "viability at 10 µM", "setting": "[12]", "result": 93.6, "unit": "%"}, {"measurement": "viability at 10 µM", "setting": "[13]", "result": 87.8, "unit": "%"}, {"measurement": "viability at 10 µM", "setting": "[14]", "result": 92.4, "unit": "%"}, {"measurement": "viability at 10 µM", "setting": "[15]", "result": 120, "unit": "%"}, {"measurement": "viability at 10 µM", "setting": "[16]; read-out: The results of antibiotic drug inhibiting cancer cell lines (cell viability analysis), MKN-45, MKN-45, repeated experiment", "result": 99.9, "unit": "%"}, {"measurement": "viability at 10 µM", "setting": "[16]; read-out: cell viability (survival rate), MKN-45, drug 10 μM, 72 hours, WST-1, OD450 nm", "result": 61, "unit": "%"}, {"measurement": "viability at 10 µM", "setting": "[17]", "result": 75.6, "unit": "%"}, {"measurement": "viability at 10 µM", "setting": "[18]; read-out: The results of antibiotic drug inhibiting cancer cell lines (cell viability analysis), PC-3, PC-3, repeated experiment", "result": 104, "unit": "%"}, {"measurement": "viability at 10 µM", "setting": "[18]; read-out: cell viability (survival rate), PC3, drug 10 μM, 72 hours, WST-1, OD450 nm", "result": 40.7, "unit": "%"}, {"measurement": "viability at 10 µM", "setting": "[19]", "result": 69.2, "unit": "%"}, {"measurement": "viability at 10 µM", "setting": "[20]", "result": 78.5, "unit": "%"}, {"measurement": "viability at 10 µM", "setting": "[21]", "result": 80.1, "unit": "%"}, {"measurement": "viability at 10 µM", "setting": "[22]; read-out: The results of antibiotic drug inhibiting cancer cell lines (cell viability analysis), H1650, H1650, repeated experiment", "result": 90.3, "unit": "%"}, {"measurement": "viability at 10 µM", "setting": "[22]; read-out: cell viability (survival rate), H1650, drug 10 μM, 72 hours, WST-1, OD450 nm", "result": 72.9, "unit": "%"}, {"measurement": "viability at 10 µM", "setting": "[23]; read-out: The results of antibiotic drug inhibiting cancer cell lines (cell viability analysis), A375, A375, repeated experiment", "result": 97.8, "unit": "%"}, {"measurement": "viability at 10 µM", "setting": "[23]; read-out: cell viability (survival rate), A375, drug 10 μM, 72 hours, WST-1, OD450 nm", "result": 60.9, "unit": "%"}, {"measurement": "viability at 10 µM", "setting": "[24]", "result": 88.8, "unit": "%"}]}
